SMILES strings stand for the structures.

The nature of this data set: Log of liquid dish neat product liquid-air partition coefficient. It is filed as physicochemical. The conditions noted are these: for Log of liquid dish neat product liquid-air partition coefficient (Comment Code): code letters K/L of the Comment Code.

Consider `CC1(O)CCC2=C(CCCC2(C)C)C1` (stereo not drawn) [Material 676], for which the “Log of liquid dish neat product liquid-air partition coefficient (Comment Code)” value (“Log … (Comment Code)” below) was “K (Log of liquid dish neat product liquid-air partition coefficient greater than or equal to 7)”. On the same count and under the same terms, the entry for `CCC(O)COC1CCCCC1C(C)(C)C` (stereo not drawn) [Material 677] is “K (Log of liquid dish neat product liquid-air partition coefficient greater than or equal to 7)”. For the compound `CC1C(C)(C)C2CCC3CC(C)(C)OC3C2C1(C)C` (stereo not drawn) [Material 679], the “Comment Code: Log of liquid dish neat product liquid-air partition coefficient” value (from here on “Comment Code: Log”) is on record as “K (Log of liquid dish neat product liquid-air partition coefficient greater than or equal to 7)” and the “Log … (Comment Code)” value was “K (Log of liquid dish neat product liquid-air partition coefficient greater than or equal to 7)”. As for `CC1C(C)(C)C2CCC3CC(C)(C)OC3C2C1(C)C` (stereo not drawn) [Material 680], the “Comment Code: Log” value is recorded as “K (Log of liquid dish neat product liquid-air partition coefficient greater than or equal to 7)” and the “Log … (Comment Code)” value is listed as “K (Log of liquid dish neat product liquid-air partition coefficient greater than or equal to 7)”.

As for `CC(C)=C1CCC2=CC(=O)CC(C)C2(C)C1` (stereo not drawn) [Material 684], the “Comment Code: Log” value was “K (Log of liquid dish neat product liquid-air partition coefficient greater than or equal to 7)” and the “Log … (Comment Code)” value is given as “K (Log of liquid dish neat product liquid-air partition coefficient greater than or equal to 7)”.

In the case of `CCC(=O)OC(C)(C)C1CC=C(C)CC1` (stereo not drawn) [Material 686], the “Log … (Comment Code)” value is “K (Log of liquid dish neat product liquid-air partition coefficient greater than or equal to 7)”. Take `CC(=O)OC(C)(C)C1CC=C(C)CC1` (stereo not drawn) [Material 687]: the “Comment Code: Log” value is given as “K (Log of liquid dish neat product liquid-air partition coefficient greater than or equal to 7)”. For the compound `C=CC(C)=CCC=C(C)CCC=C(C)C=O` [Material 691], the “Log … (Comment Code)” value is listed as “K (Log of liquid dish neat product liquid-air partition coefficient greater than or equal to 7)”. Regarding `C=C(C)C1CCC2(C)CCC=C(C)C2C1` (stereo not drawn) [Material 692], the “Log … (Comment Code)” value was “K (Log of liquid dish neat product liquid-air partition coefficient greater than or equal to 7)”. On to `CC(=CCCC1(C)C2CC3C(C2)C31C)CO` (stereo not drawn) [Material 694], for which the “Comment Code: Log” value is “K (Log of liquid dish neat product liquid-air partition coefficient greater than or equal to 7)” and the “Log … (Comment Code)” value is given as “K (Log of liquid dish neat product liquid-air partition coefficient greater than or equal to 7)”. On to `C=CCCC(=O)C1=CCCC(C)(C)C1` [Material 697], for which the “Log … (Comment Code)” value is “K (Log of liquid dish neat product liquid-air partition coefficient greater than or equal to 7)”. With `CC(O)CCC1CCCCC1` (stereo not drawn) [Material 699], the “Comment Code: Log” value is “K (Log of liquid dish neat product liquid-air partition coefficient greater than or equal to 7)”.

Turning to `CCC(=O)C=CC1C(C)=CCCC1(C)C` (stereo not drawn) [Material 700], the “Log … (Comment Code)” value is recorded as “K (Log of liquid dish neat product liquid-air partition coefficient greater than or equal to 7)”. Consider `CC(C=O)=Cc1ccccc1` [Material 701], for which the “Comment Code: Log” value was “K (Log of liquid dish neat product liquid-air partition coefficient greater than or equal to 7)”.

Consider `CC(=O)C(C)=CC1C(C)=CCCC1(C)C` (stereo not drawn) [Material 703], for which the “Comment Code: Log” value is “K (Log of liquid dish neat product liquid-air partition coefficient greater than or equal to 7)”. As to `CC(=O)C=CC1C(C)=CCC(C)C1(C)C` (stereo not drawn) [Material 704], the “Log … (Comment Code)” value is given as “K (Log of liquid dish neat product liquid-air partition coefficient greater than or equal to 7)”. On to `CC1=CCCC(C)=CCC(C)(C)C=CC1` [Material 706], for which the “Log … (Comment Code)” value is “K (Log of liquid dish neat product liquid-air partition coefficient greater than or equal to 7)”. The same measure, in the same setting: the entry for `C=C1CCCC(C)(C)C2C=C(C)CCC12` (stereo not drawn) [Material 707] is “K (Log of liquid dish neat product liquid-air partition coefficient greater than or equal to 7)”. Same read-out and setting: the result for `C=CC(C)=CCC=C(C)CCC=C(C)C` [Material 710] reads “K (Log of liquid dish neat product liquid-air partition coefficient greater than or equal to 7)”. Regarding `CC1=CCCC2(C)CCC(C(C)(C)O)CC12` (stereo not drawn) [Material 712], the “Comment Code: Log” value is “K (Log of liquid dish neat product liquid-air partition coefficient greater than or equal to 7)” and the “Log … (Comment Code)” value is listed as “K (Log of liquid dish neat product liquid-air partition coefficient greater than or equal to 7)”. Consider `CC(C)=CCCC(C)c1ccc(C)cc1` (stereo not drawn) [Material 713], for which the “Log … (Comment Code)” value is “K (Log of liquid dish neat product liquid-air partition coefficient greater than or equal to 7)”.

Regarding `CC1=CC2C(C(C)C)CCC(C)(O)C2CC1` (stereo not drawn) [Material 716], the “Log … (Comment Code)” value was “K (Log of liquid dish neat product liquid-air partition coefficient greater than or equal to 7)”.

`CC(C)=CCCC(C)(O)C1CC=C(C)CC1` (stereo not drawn) [Material 718]: the “Log … (Comment Code)” value is recorded as “K (Log of liquid dish neat product liquid-air partition coefficient greater than or equal to 7)”. Same read-out and setting: the entry for `CC(C)=CCC=C(C)C1CC=C(C)CC1` (stereo not drawn) [Material 719] is “K (Log of liquid dish neat product liquid-air partition coefficient greater than or equal to 7)”. As for `CC1=CCCC2(C)CCC3CC12OC3(C)C` (stereo not drawn) [Material 726], the “Comment Code: Log” value was “K (Log of liquid dish neat product liquid-air partition coefficient greater than or equal to 7)” and the “Log … (Comment Code)” value was “K (Log of liquid dish neat product liquid-air partition coefficient greater than or equal to 7)”. For `CC(C)=CCCC1=CCC(C)(C=O)CC1` (stereo not drawn) [Material 727], the “Log … (Comment Code)” value is “K (Log of liquid dish neat product liquid-air partition coefficient greater than or equal to 7)”.

For the compound `CCCC(O)Cc1ccccc1` (stereo not drawn) [Material 730], the “Log … (Comment Code)” value is “K (Log of liquid dish neat product liquid-air partition coefficient greater than or equal to 7)”. Consider `CCC(C)(O)CCc1ccccc1` (stereo not drawn) [Material 731], for which the “Log … (Comment Code)” value is reported as “K (Log of liquid dish neat product liquid-air partition coefficient greater than or equal to 7)”. Same read-out and setting: the result for `CC(C)CCCC(C)CCCC(C)C=O` (stereo not drawn) [Material 741] reads “K (Log of liquid dish neat product liquid-air partition coefficient greater than or equal to 7)”.

As to `Cc1ccc(CC(C)C=O)cc1` (stereo not drawn) [Material 742], the “Log … (Comment Code)” value is given as “K (Log of liquid dish neat product liquid-air partition coefficient greater than or equal to 7)”.

For `C=CCOC(=O)COc1ccccc1` [Material 743], the “Comment Code: Log” value is reported as “K (Log of liquid dish neat product liquid-air partition coefficient greater than or equal to 7)”. As for `C=CCOCCc1ccccc1` [Material 744], the “Comment Code: Log” value was “K (Log of liquid dish neat product liquid-air partition coefficient greater than or equal to 7)”. On to `C=CCOC(=O)CCC1CCCCC1` [Material 746], for which the “Log … (Comment Code)” value is “K (Log of liquid dish neat product liquid-air partition coefficient greater than or equal to 7)”. For the compound `C=CCOC(=O)COCCC(C)C` [Material 748], the “Log … (Comment Code)” value is listed as “K (Log of liquid dish neat product liquid-air partition coefficient greater than or equal to 7)”. In the case of `CCC(=O)N(CC)c1cccc(C)c1` [Material 755], the “Comment Code: Log” value was “K (Log of liquid dish neat product liquid-air partition coefficient greater than or equal to 7)”.

Turning to `CC(C)=CCCC(C)CCCC(C)C=O` (stereo not drawn) [Material 757], the “Log … (Comment Code)” value is given as “K (Log of liquid dish neat product liquid-air partition coefficient greater than or equal to 7)”. Regarding `COc1ccc(C(C)=O)cc1` [Material 761], the “Comment Code: Log” value was “K (Log of liquid dish neat product liquid-air partition coefficient greater than or equal to 7)”. As to `CCCOC(C)OCCc1ccccc1` (stereo not drawn) [Material 766], the “Log … (Comment Code)” value is reported as “K (Log of liquid dish neat product liquid-air partition coefficient greater than or equal to 7)”.

Consider `COCCOC(C)OCc1ccccc1` (stereo not drawn) [Material 768], for which the “Log … (Comment Code)” value is on record as “K (Log of liquid dish neat product liquid-air partition coefficient greater than or equal to 7)”. Same read-out and setting: the entry for `C=C(C)C1CCC2(C)CCC=C(C)C2C1` (stereo not drawn) [Material 774] is “K (Log of liquid dish neat product liquid-air partition coefficient greater than or equal to 7)”. Consider `CC1=CCCC2(C)CCC(C(C)(C)O)CC12` (stereo not drawn) [Material 775], for which the “Comment Code: Log” value is “K (Log of liquid dish neat product liquid-air partition coefficient greater than or equal to 7)” and the “Log … (Comment Code)” value was “K (Log of liquid dish neat product liquid-air partition coefficient greater than or equal to 7)”. Regarding `CC(C)c1ccc2ncccc2c1` [Material 778], the “Log … (Comment Code)” value is on record as “K (Log of liquid dish neat product liquid-air partition coefficient greater than or equal to 7)”. Turning to `CC1(C)C2CC=C(CCC=O)C1C2` (stereo not drawn) [Material 781], the “Log … (Comment Code)” value is reported as “K (Log of liquid dish neat product liquid-air partition coefficient greater than or equal to 7)”.

As to `CC(=O)CCCC(C)CCCC(C)CCCC(C)C` (stereo not drawn) [Material 782], the “Log … (Comment Code)” value is listed as “K (Log of liquid dish neat product liquid-air partition coefficient greater than or equal to 7)”.

For the origin of these results see patent US20170333591A9, “ABSORBENT ARTICLE COMPRISING MALODOR REDUCTION COMPOSITIONS” (The Procter & Gamble Company, priority 2014, published 2017).
